Laboratory results reported in patent publication US20110059962A1, “TRANSCRIPTION FACTOR MODULATING COMPOUNDS AND METHODS OF USE THEREOF” (priority 2009, published 2011).

Experiments:
LcrF (VirF) = LcrF (VirF) (Yersinia pestis, UniProt P28808); assay: biochemical; format: binding, Y. pseudotuberculosis
[1] = tested on: Y. pseudotuberculosis cytotoxicity toward J774 cells; assay: microbe, parasite or virus in culture; settings: Yersinia pseudotuberculosis, J774, read-out: % Cytotoxicity
[2] = tested on: P. aeruginosa cytotoxicity toward J774 cells; assay: Inhibition of P. aeruginosa cytotoxicity toward J774 macrophage-like cells, whole cell LDH release assay (CytoTox 96); parameters: dose or concentration left out as unconfirmed; settings: Pseudomonas aeruginosa, J774, read-out: % Cytotoxicity
ExsA = molecular target: T1, ExsA (Pseudomonas aeruginosa, UniProt P26993); assay: Inhibition of ExsA-DNA binding, cell-free chemiluminescence assay; parameters: species or system P. aeruginosa
T1 construct: made in house
T1 sequence (P26993 1-278): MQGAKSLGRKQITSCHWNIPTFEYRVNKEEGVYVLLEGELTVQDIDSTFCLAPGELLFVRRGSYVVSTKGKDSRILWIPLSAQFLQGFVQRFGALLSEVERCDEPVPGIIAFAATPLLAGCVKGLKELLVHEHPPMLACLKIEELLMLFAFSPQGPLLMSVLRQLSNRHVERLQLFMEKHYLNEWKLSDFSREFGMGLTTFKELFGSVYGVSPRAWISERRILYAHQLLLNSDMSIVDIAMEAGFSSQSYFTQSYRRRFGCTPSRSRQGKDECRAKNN

SoxS = molecular target: T2, SoxS (Escherichia coli, UniProt P0A9E2); assay: Inhibition of SoxS-DNA binding, cell-free chemiluminescence assay; parameters: species or system E. coli
T2 construct: made in house; host or cells: E. coli
T2 sequence (P0A9E2 1-107): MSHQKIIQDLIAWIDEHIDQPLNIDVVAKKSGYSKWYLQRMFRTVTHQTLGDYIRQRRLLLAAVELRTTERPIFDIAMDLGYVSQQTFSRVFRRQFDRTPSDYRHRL

Sequence of LcrF (VirF) (P28808 whole entry, looked up): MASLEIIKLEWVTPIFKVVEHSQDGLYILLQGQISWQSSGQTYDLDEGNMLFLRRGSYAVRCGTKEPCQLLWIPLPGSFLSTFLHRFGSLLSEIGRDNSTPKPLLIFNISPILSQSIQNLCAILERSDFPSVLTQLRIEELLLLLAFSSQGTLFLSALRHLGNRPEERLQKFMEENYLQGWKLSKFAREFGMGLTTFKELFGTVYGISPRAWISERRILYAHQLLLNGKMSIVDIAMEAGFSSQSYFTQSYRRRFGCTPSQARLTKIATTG

Structure (SMILES) | IC50 (LcrF (VirF)) [µM] | activity at 50 µg/mL [1] [%] | activity [2] [%] | IC50 (ExsA) [µM] | IC50 (SoxS) [µM]
O=C(/C=C/c1ccc(F)cc1)Nc1ccc(-c2nc3ccc(Cl)cc3n2O)cc1 [AG] | > 50 | 75 to 99 | 75 to 99 |  | 
O=C(O)Cc1cc([N+](=O)[O-])cc2c1nc(-c1ccc(NC(=O)/C=C/c3ccc(F)cc3)cc1)n2O [AH] | 10 to 25 | 75 to 99 | 75 to 99 |  | 
CC(=O)c1ccc(/C=C/C(=O)Nc2ccc(-c3nc4ccc(Cl)cc4n3O)cc2)cc1 [B] | > 50 | 75 to 99 | 75 to 99 | 10 to 25 | 
CSc1ccc(/C=C/C(=O)Nc2ccc(-c3nc4ccc([N+](=O)[O-])cc4n3O)cc2)cc1 [C] | 10 to 25 | 75 to 99 | 75 to 99 | 10 to 25 | 25 to 50
CC(=O)c1ccc(/C=C/C(=O)Nc2ccc(-c3nc4ccc(C#N)cc4n3O)cc2)cn1 [Compound A, (E)-3-(6-Acetyl-pyridin-3-yl)-N-[4-(6-cyano-1-hydroxy-1H-benzoimidazol-2-yl)-phenyl]-acrylamide] | 25 to 50 | < 75 | < 75 | > 50 | 
O=C(O)Cc1cc([N+](=O)[O-])cc2c1nc(-c1ccc(NC(=O)c3ccc(-n4ccnc4)cc3)cc1)n2O [Compound AA, {1-Hydroxy-2-[4-(4-imidazol-1-yl-benzoylamino)-phenyl]-6-nitro-1H-benzoimidazol-4-yl}-acetic acid] | < 10 | < 75 | < 75 |  | 
CC(=O)c1ccc2nc(-c3ccc(NC(=O)/C=C/c4ccc(F)cc4)cc3)n(O)c2c1 [Compound AB, (E)-N-[4-(6-Acetyl-1-hydroxy-1H-benzoimidazol-2-yl)-phenyl]-3-(4-fluoro-phenyl)-acrylamide] | 25 to 50 | 75 to 99 | 75 to 99 |  | 
O=C(/C=C/c1ccc(F)cc1)Nc1ccc(-c2nc3ccc(F)cc3n2O)cc1 [Compound AC, (E)-N-[4-(6-Fluoro-1-hydroxy-1H-benzoimidazol-2-yl)-phenyl]-3-(4-fluoro-phenyl)-acrylamide] | > 50 | 75 to 99 | 75 to 99 |  | 
CS(=O)(=O)c1ccc2nc(-c3ccc(NC(=O)/C=C/c4ccc(F)cc4)cc3)n(O)c2c1 [Compound AD, (E)-3-(4-Fluoro-phenyl)-N-[4-(1-hydroxy-6-methanesulfonyl-1H-benzoimidazol-2-yl)-phenyl]-acrylamide] | > 50 | 75 to 99 | 75 to 99 |  | 
O=C(/C=C/c1ccc(F)cc1)Nc1ccc(-c2nc3ccccc3n2O)cc1 [Compound AE, (E)-3-(4-Fluoro-phenyl)-N-[4-(1-hydroxy-1H-benzoimidazol-2-yl)-phenyl]-acrylamide] | > 50 | 75 to 99 | 75 to 99 |  | 
O=C(/C=C/c1ccc(F)cc1)Nc1ccc(-c2nc3ccc(C(F)(F)F)cc3n2O)cc1 [Compound AF, (E)-3-(4-Fluoro-phenyl)-N-[4-(1-hydroxy-6-trifluoromethyl-1H-benzoimidazol-2-yl)-phenyl]-acrylamide] | > 50 | 75 to 99 | 75 to 99 |  | 
O=C(/C=C/c1ccc(F)cc1)Nc1ccc(-c2nc3ccc(C(=O)O)cc3n2O)cc1 [Compound AI, 2-{4-[(E)-3-(4-Fluoro-phenyl)-acryloylamino]-phenyl}-3-hydroxy-3H-benzoimidazole-5-carboxylic acid] | 25 to 50 | < 75 | 75 to 99 |  | 
CSc1ccc(/C=C/C(=O)Nc2ccc(-c3nc4ccc(C#N)cc4n3O)cc2)cc1 [Compound D, (E)-N-[4-(6-Cyano-1-hydroxy-1H-benzoimidazol-2-yl)-phenyl]-3-(4-methylsulfanyl-phenyl)-acrylamide] | 25 to 50 | 75 to 99 | 75 to 99 | < 10 | 10 to 25
CSc1ccc(/C=C/C(=O)Nc2ccc(-c3nc4ccc(C#N)cc4n3O)cc2)cn1 [Compound H, (E)-N-[4-(6-Cyano-1-hydroxy-1H-benzoimidazol-2-yl)-phenyl]-3-(6-methylsulfanyl-pyridin-3-yl)-acrylamide] | 25 to 50 | < 75 | < 75 | < 10 | > 50
O=C(Nc1ccc(-c2nc3ccc([N+](=O)[O-])cc3n2O)cc1)c1ccc(-n2cccn2)nc1 [Compound I] | 25 to 50 | < 75 | 75 to 99 | 25 to 50 | 
N#Cc1ccc2nc(-c3ccc(NC(=O)c4ccc(-n5cccn5)nc4)cc3)n(O)c2c1 [Compound M, N-[4-(6-Cyano-1-hydroxy-1H-benzoimidazol-2-yl)-phenyl]-6-pyrazol-1-yl-nicotinamide] | > 50 | < 75 | 75 to 99 |  | > 50

Structure (SMILES) | IC50 (LcrF (VirF)) [µM] | activity at 50 µg/mL [1] [%] | activity [2] [%] | IC50 (ExsA) [µM] | IC50 (SoxS) [µM]
O=C(Nc1ccc(-c2nc3ccc([N+](=O)[O-])cc3n2O)cc1)c1cccc(N2CCOCC2)n1 [Compound N, 6-Morpholin-4-yl-pyridine-2-carboxylic acid [4-(1-hydroxy-6-nitro-1H-benzoimidazol-2-yl)-phenyl]-amide] | > 50 | 75 to 99 | 75 to 99 | 10 to 25 | 
CC(=O)c1ccc(C(=O)Nc2ccc(-c3nc4c(CC(=O)O)cc([N+](=O)[O-])cc4n3O)cc2)cc1 [Compound R, {2-[4-(4-Acetyl-benzoylamino)-phenyl]-1-hydroxy-6-nitro-1H-benzoimidazol-4-yl}-acetic acid] | 25 to 50 | 75 to 99 | 75 to 99 | 25 to 50 | 
O=C(Nc1ccc(-c2nc3ccc([N+](=O)[O-])cc3n2O)cc1)c1ccnc(N2CCOCC2)c1 [Compound T] | > 50 | < 75 | 75 to 99 | > 50 | 
CSc1ccc2nc(-c3ccc(NC(=O)/C=C/c4ccc(C(C)=O)cc4)cc3)n(O)c2c1 [Compound U, (E)-3-(4-Acetyl-phenyl)-N-[4-(1-hydroxy-6-methylsulfanyl-1H-benzoimidazol-2-yl)-phenyl]-acrylamide] | > 50 | 75 to 99 | 75 to 99 | 10 to 25 | 
Cc1nc(C(F)(F)F)ccc1C(=O)Nc1ccc(-c2nc3ccc([N+](=O)[O-])cc3n2O)cc1 [Compound W, N-[4-(1-Hydroxy-6-nitro-1H-benzoimidazol-2-yl)-phenyl]-2-methyl-6-trifluoromethyl-nicotinamide] | > 50 | 75 to 99 | 75 to 99 | > 50 | 
O=C(Nc1ccc(-c2nc3ccc([N+](=O)[O-])cc3n2O)cc1)c1ccc(OCC(F)(F)F)nc1 [Compound X, N-[4-(1-Hydroxy-6-nitro-1H-benzoimidazol-2-yl)-phenyl]-6-(2,2,2-trifluoro-ethoxy)-nicotinamide] | 25 to 50 | 75 to 99 | 75 to 99 | 25 to 50 | 
O=C(Nc1ccc(-c2nc3ccc([N+](=O)[O-])cc3n2O)cc1)c1ccc(C(O)(O)C(F)(F)F)cc1 [E] | > 50 | 75 to 99 | 75 to 99 | > 50 | 
N#Cc1ccc2nc(-c3ccc(NC(=O)c4ccc(C(O)(O)C(F)(F)F)cc4)cc3)n(O)c2c1 [F] | > 50 | 75 to 99 | 75 to 99 | 10 to 25 | 
O=C(/C=C/c1ccc(C(O)(O)C(F)(F)F)cc1)Nc1ccc(-c2nc3ccc([N+](=O)[O-])cc3n2O)cc1 [K] | > 50 | 75 to 99 | 75 to 99 | > 50 | 
N#Cc1ccc2nc(-c3ccc(NC(=O)/C=C/c4ccc(C(O)(O)C(F)(F)F)cc4)cc3)n(O)c2c1 [L] | > 50 | 75 to 99 | 75 to 99 | 10 to 25 | 
CN1CCN(c2ccc(C(=O)Nc3ccc(-c4nc5ccc([N+](=O)[O-])cc5n4O)cc3)cn2)CC1 [O] | > 50 | 75 to 99 | 75 to 99 | > 50 | 
O=C(O)Cc1cc([N+](=O)[O-])cc2c1nc(-c1ccc(NC(=O)c3ccc(N4CCOCC4)nc3)cc1)n2O [Q] | 25 to 50 | 75 to 99 | 75 to 99 | 25 to 50 | 
O=C(Nc1ccc(-c2nc3ccc([N+](=O)[O-])cc3n2O)cc1)c1ccc(N2CCCCC2)nc1 [S] | > 50 | 75 to 99 | 75 to 99 | 25 to 50 | 
CN(C)c1ccc(C(=O)Nc2ccc(-c3nc4ccc([N+](=O)[O-])cc4n3O)cc2)cn1 [Y] | 10 to 25 | < 75 | 75 to 99 | 10 to 25 | 
CN(C)c1ccc(/C=C/C(=O)Nc2ccc(-c3nc4ccc([N+](=O)[O-])cc4n3O)cc2)cn1 [Z] | > 50 | 75 to 99 | 75 to 99 | > 50 | 
